Test results taken from patent US11857584B2, “Oncolytic virus growth method and antitumor agent” (KABUSHIKI KAISHA YAKULT HONSHA, priority 2017, dated 2024).

What was measured:
[1] = test system: CVA11; experiment: Promotion of CVA11 proliferation (virus titer) in WiDr cells; type: cell-based, coxsackievirus A11; conditions: then CVA11 MOI 0.01, about 30 hours, t-test
[2] = test system: DAF (decay accelerating factor); experiment: Virus receptor expression by real-time PCR in WiDr cells, DAF; type: cell-based, human; conditions: oxaliplatin 50 μM about 42 hours, or CVA11 added about 20 hours after seeding, t-test
Procedure: (§1) The cultured oxaliplatin-resistant colon cancer cell line (WiDr) was suspended in DMEM medium at 3×10^6 cells/mL. To each well of a 96-well plate, 100 μl of the obtained cell suspension was dispensed and the cells were seeded at 3×10^5 cells/well. […] Thereafter, the plate was allowed to stand for about 42 hours at 37° C., 5% CO2, and then mRNA was collected to prepare cDNA. […] The expressions of DAF (decay accelerating factor) and ICAM-1 (intercellular adhesion molecule 1) were compared by real-time PCR. The t-test was used as the test.

[3] = test system: ICAM-1 (intercellular adhesion molecule 1); experiment: Virus receptor expression by real-time PCR in WiDr cells, ICAM-1; type: cell-based, human; conditions: oxaliplatin 50 μM about 42 hours, or CVA11 added about 20 hours after seeding, t-test
Procedure: as §1

[4] = Body weight change (adverse event) in WiDr-bearing nude mice; conditions: oxaliplatin 100 μg i.p. day 1; CVA11 5×10^7 PFU intratumoral days 2, 4, 6, 8, 10
Procedure: WiDr was washed with PBS and suspended in OPTI-MEM I at 5.0×10^7 cells/mL. 100 μl of the suspension containing WiDr was injected subcutaneously with a 27 G needle into the right flank of BALB/c nude mice of 6-8 weeks old. […] The tumor volume was calculated by major axis×minor axis×minor axis×0.5. The test was conducted using 5 mice in each group, and the t-test was used as the test.

[5] = test system: CVB3; experiment: Promotion of CVB3 proliferation (virus titer) in WiDr cells; type: cell-based, coxsackievirus B3
[6] = test system: AAV; experiment: Promotion of AAV proliferation (virus copy number, real-time PCR) in WiDr cells; type: cell-based
Procedure: pAAV-CMV Vector (manufactured by Takara Bio Co., Ltd.) was used as AAV. pAAV-CMV Vector was prepared using AAVpro (registered trademark) Helper Free System (manufactured by Takara Bio Co., Ltd.). The collected supernatant (virus solution) was stored at −80° C.
The cultured oxaliplatin-resistant colon cancer cell line (WiDr) was suspended in DMEM medium at […]. To each well of a 96-well plate, 100 μl of the obtained cell suspension was dispensed and the cells were seeded at 3×10^5 cells/well. […] Subsequently, the plate was allowed to stand for about 24 hours at 37° C., 5% CO2, and then AAV was added thereto at a MOI of 0.01. After the plate was allowed to stand for about 30 hours at 37° C., 5% CO2, virus copy numbers were measured using AAVpro (registered trademark) Titration Kit (for Real Time PCR) Ver.2 (manufactured by Takara Bio Co., Ltd.). The t-test was used as the test.

O=C1[O][Pt]2([NH][C@@H]3CCCC[C@H]3[NH]2)[O]C1=O [oxaliplatin]
CVA11 virus load (virus titer) ([1]; oxaliplatin 50 μM, vs CVA11 only): significant increase in CVA11 virus load | expression of DAF (real-time PCR) [2]: significantly increased | expression of ICAM-1 (real-time PCR) [3]: significantly increased | body weight loss, compared with untreated group [4]: no significant weight loss was observed | CVB3 virus load (virus titer) ([5]; oxaliplatin 1 μM, then CVB3 MOI 0.01, t-test): significant increase | CVB3 virus load (virus titer) ([5]; oxaliplatin 0.5 or 1.0 μM, then CVB3 MOI 0.01, about 30 hours): increase in CVB3 virus load was observed | copy number of AAV ([6]; oxaliplatin 0.25, 0.5, 1.0 or 2.5 μM, then AAV MOI 0.01, about 30 hours, t-test): significant, increase in the copy number of AAV | copy number of AAV ([6]; oxaliplatin 0.25 to 1.0 μM, then AAV MOI 0.01): remarkable increase

O=c1[nH]cc(F)c(=O)[nH]1 [5-FU, 5-fluorouracil]
CVA11 virus load (virus titer) ([1]; 5-FU 50 μM): significant increase in CVA11 virus load

N.N.[Cl][Pt][Cl] [cisplatin]
CVB3 virus load (virus titer) ([5]; cisplatin 0.5 or 1.0 μM, then CVB3 MOI 0.01): no increase in CVB3 virus load was observed

CCc1c2c(nc3ccc(O)cc13)-c1cc3c(c(=O)n1C2)COC(=O)[C@]3(O)CC [SN-38, 7-ethyl-10-hydroxycamptothecin]
CVA11 virus load (virus titer) ([1]; SN-38 1.0, 5.0 or 50 μM): significant increase in CVA11 virus load
